Experimental data from paper PMC10485003, “Antibiotic hyper-resistance in a class I aminoacyl-tRNA synthetase with altered active site signature motif” (Nature Communications, 2023).
Where “and” joins values, the source holds several entries; their conditions need not be identical. Equal entries are not always repeated. Where two headings read alike, the source gives them in different places.

Biological target: T1, wt-ALHH DrIleRS2 (Deinococcus radiodurans, UniProt Q9RUP8)
T1 construct: hexa-histidine tag (pET28b(+)) (N); made in house; host or cells: E. coli BL21(DE3)
T1 sequence (Q9RUP8 whole entry): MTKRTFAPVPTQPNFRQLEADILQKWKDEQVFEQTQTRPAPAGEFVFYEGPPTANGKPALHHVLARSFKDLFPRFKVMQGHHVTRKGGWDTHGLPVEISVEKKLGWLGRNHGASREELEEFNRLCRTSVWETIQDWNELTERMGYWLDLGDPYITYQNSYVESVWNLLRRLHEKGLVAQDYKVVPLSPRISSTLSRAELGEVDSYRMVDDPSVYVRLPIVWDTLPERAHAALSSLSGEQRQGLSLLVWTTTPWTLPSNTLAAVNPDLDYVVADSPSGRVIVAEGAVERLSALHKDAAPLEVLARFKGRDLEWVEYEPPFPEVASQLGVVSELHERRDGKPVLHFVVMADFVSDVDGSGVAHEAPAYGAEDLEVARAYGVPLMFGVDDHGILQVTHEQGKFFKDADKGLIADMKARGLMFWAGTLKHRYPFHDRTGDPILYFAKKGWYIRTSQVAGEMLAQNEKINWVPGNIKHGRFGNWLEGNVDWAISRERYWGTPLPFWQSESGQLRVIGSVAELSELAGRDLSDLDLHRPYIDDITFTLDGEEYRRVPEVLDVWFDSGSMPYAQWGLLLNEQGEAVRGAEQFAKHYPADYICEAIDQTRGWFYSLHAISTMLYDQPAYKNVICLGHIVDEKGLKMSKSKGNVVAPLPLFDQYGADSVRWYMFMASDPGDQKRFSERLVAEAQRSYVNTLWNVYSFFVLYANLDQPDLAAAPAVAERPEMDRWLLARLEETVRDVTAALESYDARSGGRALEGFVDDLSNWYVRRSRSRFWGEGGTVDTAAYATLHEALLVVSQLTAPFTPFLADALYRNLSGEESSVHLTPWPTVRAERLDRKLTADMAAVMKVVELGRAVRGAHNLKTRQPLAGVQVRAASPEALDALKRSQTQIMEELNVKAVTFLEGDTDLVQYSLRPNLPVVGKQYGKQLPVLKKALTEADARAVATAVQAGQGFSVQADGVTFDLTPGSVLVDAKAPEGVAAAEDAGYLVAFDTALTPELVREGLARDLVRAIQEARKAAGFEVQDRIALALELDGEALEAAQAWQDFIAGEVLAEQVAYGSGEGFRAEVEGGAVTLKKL
Test: ATP-PPi exchange assay, mupirocin inhibition of amino acid activation
Format: biochemical
Details: for Ki: average ± SD of three independent experiments
Procedure: L-Ile and ATP concentrations ranged from 1/10 KM to 10 KM values. When measuring the KI towards one of the substrates, the other was held in saturation (concentrations at least 10 KM). The aliquots of the reaction mixture (1–2.5 μl) were quenched in 2 volumes of 500 mM NaOAc pH = 4.5, 0.1% SDS, and formed ^32P-ATP was separated from the remaining ^32P-PPi by thin-layer chromatography on Polygram CEL 300 PEI UV254 TLC plates (Macherey-Nagel, cat: 801063) using 750 mM KH2PO4 pH=3.5, 4 M urea buffer. Visualization and quantification of the signals was performed using a Typhoon Phosphoimager 5 (General Electric) and accompanying ImageQuant™ TL software (SV: 10.2). The kinetic constants were determined using a global fit option of the competitive inhibition model of GraphPad Prism 6 software (SV: 6.01). All experiments were performed in triplicates. The kcat was determined by dividing the maximal velocity, VM, with the used enzyme concentration. […]
variable substrate (ATP or Ile) was varied in the range of 0.1 KM to 10 KM. The other substrate (Ile or ATP) was kept in excess at 5 to 10 KM. Data were globally fitted to the competitive inhibition model using GraphPad prism 6.01 for Windows software. The values represent the average value ± SD of three independent experiments. Source data are provided as a Source Data file.

C/C(=C\C(=O)OCCCCCCCCC(=O)O)C[C@@H]1OC[C@H](C[C@@H]2O[C@H]2[C@@H](C)[C@H](C)O)[C@@H](O)[C@H]1O [mupirocin]
Ki (amino acid activation assay, ATP as variable substrate, read-out: KI (MUP)ATP): 7.7 ± 0.4 mM
Ki (amino acid activation step, ATP/PPi exchange assay, Ile varied, ATP saturating, read-out: KI (MUP)Ile): 6.6 ± 0.4 mM
mode of inhibition (amino acid activation step, with respect to both Ile and ATP): classical competitive inhibition
initial velocity vo (c(mupirocin) 2.0 mM, c(Ile) 10.0 μM): 0.0067 mM/min and 0.00769 mM/min and 0.00782 mM/min
initial velocity vo (c(mupirocin) 2.0 mM, c(Ile) 20.0 μM): 0.01324 mM/min and 0.01288 mM/min and 0.01298 mM/min
initial velocity vo (c(mupirocin) 2.0 mM, c(Ile) 40.0 μM): 0.02028 mM/min and 0.02243 mM/min and 0.02046 mM/min
initial velocity vo (c(mupirocin) 5.0 mM, c(ATP) 1.0 mM): 0.03528 mM/min and 0.03566 mM/min and 0.03641 mM/min
initial velocity vo (c(mupirocin) 5.0 mM, c(ATP) 2.5 mM): 0.04751 mM/min and 0.04951 mM/min and 0.05105 mM/min
initial velocity vo (c(mupirocin) 5.0 mM, c(ATP) 5.0 mM): 0.05659 mM/min and 0.05544 mM/min and 0.05848 mM/min
initial velocity vo (c(mupirocin) 5.0 mM, c(ATP) 10.0 mM): 0.05987 mM/min and 0.05899 mM/min and 0.06477 mM/min
initial velocity vo (c(mupirocin) 5.0 mM, c(Ile) 10.0 μM): 0.00848 mM/min and 0.00805 mM/min and 0.00714 mM/min
initial velocity vo (c(mupirocin) 5.0 mM, c(Ile) 20.0 μM): 0.01178 mM/min and 0.01222 mM/min and 0.01149 mM/min
initial velocity vo (c(mupirocin) 5.0 mM, c(Ile) 40.0 μM): 0.01921 mM/min and 0.02111 mM/min and 0.01863 mM/min
initial velocity vo (c(mupirocin) 10.0 mM, c(ATP) 1.0 mM): 0.02957 mM/min and 0.02811 mM/min and 0.02952 mM/min
initial velocity vo (c(mupirocin) 10.0 mM, c(ATP) 2.5 mM): 0.04461 mM/min and 0.04583 mM/min and 0.04572 mM/min
initial velocity vo (c(mupirocin) 10.0 mM, c(ATP) 5.0 mM): 0.05427 mM/min and 0.05634 mM/min and 0.05619 mM/min
initial velocity vo (c(mupirocin) 10.0 mM, c(ATP) 10.0 mM): 0.06096 mM/min and 0.06226 mM/min and 0.06179 mM/min
initial velocity vo (c(mupirocin) 10.0 mM, c(Ile) 10.0 μM): 0.00446 mM/min and 0.00532 mM/min and 0.0043 mM/min
initial velocity vo (c(mupirocin) 10.0 mM, c(Ile) 20.0 μM): 0.0078 mM/min and 0.01029 mM/min and 0.0074 mM/min
initial velocity vo (c(mupirocin) 10.0 mM, c(Ile) 40.0 μM): 0.01449 mM/min and 0.016 mM/min and 0.01446 mM/min
initial velocity vo (c(mupirocin) 10.0 mM, c(Ile) 80.0 μM): 0.02234 mM/min and 0.02409 mM/min and 0.02227 mM/min
initial velocity vo (c(mupirocin) 15.0 mM, c(ATP) 1.0 mM): 0.02381 mM/min and 0.02402 mM/min and 0.0242 mM/min
initial velocity vo (c(mupirocin) 15.0 mM, c(ATP) 2.5 mM): 0.03988 mM/min and 0.03998 mM/min and 0.04105 mM/min
initial velocity vo (c(mupirocin) 15.0 mM, c(ATP) 5.0 mM): 0.05025 mM/min and 0.05034 mM/min and 0.05209 mM/min
initial velocity vo (c(mupirocin) 15.0 mM, c(ATP) 10.0 mM): 0.0561 mM/min and 0.05663 mM/min and 0.05737 mM/min
initial velocity vo (c(mupirocin) 20.0 mM, c(ATP) 1.0 mM): 0.02027 mM/min and 0.02047 mM/min and 0.01966 mM/min
initial velocity vo (c(mupirocin) 20.0 mM, c(ATP) 2.5 mM): 0.03606 mM/min and 0.03686 mM/min and 0.03693 mM/min
initial velocity vo (c(mupirocin) 20.0 mM, c(ATP) 5.0 mM): 0.04674 mM/min and 0.0476 mM/min and 0.04884 mM/min
initial velocity vo (c(mupirocin) 20.0 mM, c(ATP) 10.0 mM): 0.05461 mM/min and 0.05589 mM/min and 0.05542 mM/min
initial velocity vo (c(mupirocin) 25 mM, c(ATP) 1.0 mM): 0.01716 mM/min and 0.01763 mM/min and 0.01741 mM/min
initial velocity vo (c(mupirocin) 25 mM, c(ATP) 2.5 mM): 0.03106 mM/min and 0.033 mM/min and 0.02877 mM/min
initial velocity vo (c(mupirocin) 25 mM, c(ATP) 5.0 mM): 0.0424 mM/min and 0.04408 mM/min and 0.04201 mM/min
initial velocity vo (c(mupirocin) 25 mM, c(ATP) 10.0 mM): 0.05204 mM/min and 0.0507 mM/min and 0.05392 mM/min
initial velocity vo (c(mupirocin) 25.0 mM, c(Ile) 10.0 μM): 0.003 mM/min and 0.0032 mM/min and 0.00312 mM/min
initial velocity vo (c(mupirocin) 25.0 mM, c(Ile) 20.0 μM): 0.0036 mM/min and 0.0044 mM/min and 0.00399 mM/min
initial velocity vo (c(mupirocin) 25.0 mM, c(Ile) 40.0 μM): 0.0074 mM/min and 0.0071 mM/min and 0.00814 mM/min
initial velocity vo (c(mupirocin) 25.0 mM, c(Ile) 80.0 μM): 0.0137 mM/min
